Converted amounts (≈) assume the structure as drawn. The source made the active and inactive calls. The rule behind the calls is not given here.
Columns and labels:
[1] = test system: Clostridioides difficile; experiment: Antibacterial activity against Clostridioides difficile ATCC 43255 assessed as inhibition of bacterial growth measured after 24 hrs by CLSI based broth dilution method; type: functional
[2] = test system: Staphylococcus aureus; experiment: Antibacterial activity against Staphylococcus aureus ATCC 4330 assessed as inhibition of bacterial growth measured after 16 to 24 hrs by CLSI based broth dilution method; type: functional; settings: time 16-24 hrs
[3] = (§1) Toxicity in colitis-induced C57BL/6J mouse infected with Clostridioides difficile ribotype 027 assessed as increase in Enterococcus proportion in gut at 30 mg/kg, po qd pretreated with clindamycin followed by infected with […] and measured on day 20 post treatment by RNA sequencing analysis (reference value: 0%); type: organism-based; settings: in vivo, 480 h, time 20 day
[4] = as §1, with “Klebsiella” for “Enterococcus”; type: organism-based; settings: in vivo, 480 h, time 20 day
[5] = test system: Clostridioides difficile; experiment: Antibacterial activity against Clostridioides difficile RT012/ST54/A+B+ assessed as inhibition of bacterial growth measured after 24 hrs by CLSI based broth dilution method; type: functional
[6] = as §1, with “6” for “20”; type: organism-based; settings: in vivo, 144 h, time 6 day
[7] = as §1, with “Escherichia” for “Enterococcus”; type: organism-based; settings: in vivo, 480 h, time 20 day
[8] = as §1, with “Escherichia” for “Enterococcus”, “6” for “20”; type: organism-based; settings: in vivo, 144 h, time 6 day
[9] = test system: Clostridioides difficile; experiment: Antibacterial activity against Clostridioides difficile RT014/ST14/A+B+ assessed as inhibition of bacterial growth measured after 24 hrs by CLSI based broth dilution method; type: functional
[10] = test system: Clostridioides difficile; experiment: Antibacterial activity against Clostridioides difficile RT001/ST3/A+B+ assessed as inhibition of bacterial growth measured after 24 hrs by CLSI based broth dilution method; type: functional
[11] = test system: Clostridioides difficile; experiment: Antibacterial activity against Clostridioides difficile RT130/ST5/A+B+CDT+ assessed as inhibition of bacterial growth measured after 24 hrs by CLSI based broth dilution method; type: functional
[12] = as §1, with “Klebsiella” for “Enterococcus”, “6” for “20”; type: organism-based; settings: in vivo, 144 h, time 6 day
[13] = test system: Clostridioides difficile; experiment: Antibacterial activity against Clostridioides difficile RT078/ST11/A+B+CDT+ assessed as inhibition of bacterial growth measured after 24 hrs by CLSI based broth dilution method; type: functional
[14] = test system: Clostridioides difficile; experiment: Antibacterial activity against Clostridioides difficile RT027/ST1/A+B+CDT+ assessed as inhibition of bacterial growth measured after 24 hrs by CLSI based broth dilution method; type: functional
[15] = test system: Clostridioides difficile; experiment: Antibacterial activity against Clostridioides difficile NT/ST221/A+B+CDT+ assessed as inhibition of bacterial growth measured after 24 hrs by CLSI based broth dilution method; type: functional
[16] = test system: Clostridioides difficile; experiment: Antibacterial activity against Clostridioides difficile NT/ST67/A+B+CDT+ assessed as inhibition of bacterial growth measured after 24 hrs by CLSI based broth dilution method; type: functional
[17] = test system: Clostridioides difficile; experiment: Antibacterial activity against Clostridioides difficile RT293/ST129/A+B+ assessed as inhibition of bacterial growth measured after 24 hrs by CLSI based broth dilution method; type: functional
[18] = test system: Clostridioides difficile; experiment: Antibacterial activity against Clostridioides difficile ribotype 027 infected in colitis induced C57BL/6J mouse assessed as survival rate at 30 mg/kg, po qd pretreated with clindamycin followed by […] infection and compound addition measured on day 5; type: functional; settings: ribotype 027, 120 h, time 5 day
[19] = test system: Clostridioides difficile; experiment: Antibacterial activity against Clostridioides difficile RT018/ST17/A+B+ assessed as inhibition of bacterial growth measured after 24 hrs by CLSI based broth dilution method; type: functional
[20] = test system: Clostridioides difficile; experiment: Antibacterial activity against Clostridioides difficile RT015/ST35/A+B+ assessed as inhibition of bacterial growth measured after 24 hrs by CLSI based broth dilution method; type: functional
[21] = test system: Clostridioides difficile; experiment: Antibacterial activity against Clostridioides difficile ribotype 027 infected in colitis induced C57BL/6J mouse assessed as increase in survival rate without recurrence at 30 mg/kg, po qd pretreated with clindamycin followed by […] infection and compound addition measured on day 5; type: functional; settings: time 5 day
[22] = test system: Clostridioides difficile; experiment: Antibacterial activity against Clostridioides difficile ribotype 027 infected in colitis induced C57BL/6J mouse assessed as increase in survival rate without recurrence at 30 mg/kg, po qd pretreated with clindamycin followed by […] infection and compound addition measured on day 15 to day 19; type: functional, organism-based; settings: time 15-19 day
[23] = test system: Clostridioides difficile; experiment: Antibacterial activity against Clostridioides difficile RT002/ST8/A+B+ assessed as inhibition of bacterial growth measured after 24 hrs by CLSI based broth dilution method; type: functional
[24] = test system: Clostridioides difficile; experiment: Antibacterial activity against Clostridioides difficile RT017/ST37/A-B+ assessed as inhibition of bacterial growth measured after 24 hrs by CLSI based broth dilution method; type: functional
[25] = test system: Clostridioides difficile; experiment: Antibacterial activity against Clostridioides difficile ribotype 027 infected in colitis induced C57BL/6J mouse assessed as increase in survival rate without recurrence at 30 mg/kg, po qd pretreated with clindamycin followed by […] infection and compound addition measured on day 10 to day 11; type: functional, organism-based; settings: time 10-11 day
[26] = Aqueous kinetic solubility of the compound at pH 7.4 incubated for 2 hrs by UPLC-MS analysis; type: physicochemical; settings: read-out: Kinetic_solubility
[27] = test system: Staphylococcus aureus; experiment: Antibacterial activity against methicillin-resistant Staphylococcus aureus assessed as inhibition of bacterial growth measured after 16 to 24 hrs by CLSI based broth dilution method; type: functional; settings: time 16-24 hrs

SMILES: C/C=C1\NC(=O)[C@H]([C@@H](C)O)NC(=O)c2csc(n2)-c2ccc(-c3nc(-c4nc(C(=O)NC5(C(=O)NCCCN6CCOCC6)CC5)cs4)cs3)nc2-c2csc(n2)[C@H]([C@@H](C)O)NC(=O)c2csc(n2)[C@H](C(C)C)NC(=O)c2csc1n2
- MIC [1]: 1 µg/mL (≈ 0.824 µM)
- MIC [2]: 1 µg/mL (≈ 0.824 µM)

SMILES: C/C=C1\NC(=O)[C@H]([C@@H](C)O)NC(=O)c2csc(n2)-c2ccc(-c3nc(-c4nc(C(=O)NC5(C(=O)NCCn6c([N+](=O)[O-])cnc6C)CC5)cs4)cs3)nc2-c2csc(n2)[C@H]([C@@H](C)O)NC(=O)c2csc(n2)[C@H](C(C)C)NC(=O)c2csc1n2
- MIC [1]: 0.5 µg/mL (≈ 0.403 µM)
- MIC [2]: 0.5 µg/mL (≈ 0.403 µM)

SMILES: CN[C@H](CC(C)C)C(=O)N[C@H]1C(=O)N[C@@H](CC(N)=O)C(=O)N[C@H]2C(=O)N[C@H]3C(=O)N[C@H](C(=O)N[C@H](C(=O)O)c4cc(O)cc(O)c4-c4cc3ccc4O)[C@H](O)c3ccc(c(Cl)c3)Oc3cc2cc(c3O[C@@H]2O[C@H](CO)[C@@H](O)[C@H](O)[C@H]2O[C@H]2C[C@](C)(N)[C@H](O)[C@H](C)O2)Oc2ccc(cc2Cl)[C@H]1O [VANCOMYCIN]
- Activity [3]: 21.53%
- Activity [4]: 1.39%
- MIC [1]: 1 µg/mL (≈ 0.69 µM)
- MIC [5]: 1 µg/mL (≈ 0.69 µM)
- Activity [6]: 0%
- Activity [7]: 5.22%
- Activity [8]: 24.55%
- MIC [9]: 1 µg/mL (≈ 0.69 µM)
- MIC [10]: 1 µg/mL (≈ 0.69 µM)
- MIC [11]: 1 µg/mL (≈ 0.69 µM)
- Activity [12]: 8.78%
- MIC [13]: 1 µg/mL (≈ 0.69 µM)
- MIC [14]: 1 µg/mL (≈ 0.69 µM)
- MIC [15]: 2 µg/mL (≈ 1.38 µM)
- MIC [16]: 2 µg/mL (≈ 1.38 µM)
- MIC [17]: 1 µg/mL (≈ 0.69 µM)
- survival at 30 mg/kg [18]: 40%
- MIC [19]: 1 µg/mL (≈ 0.69 µM)
- MIC [20]: 0.5 µg/mL (≈ 0.345 µM)
- Activity [21]: 30%
- Activity [22]: inactive
- MIC [23]: 1 µg/mL (≈ 0.69 µM)
- MIC [24]: 0.5 µg/mL (≈ 0.345 µM)

SMILES: CCc1c(Cl)c(O)c(Cl)c(O)c1C(=O)O[C@H]1[C@H](O)[C@H](OC)[C@H](OC/C2=C\C=C\C[C@H](O)/C(C)=C/[C@H](CC)[C@@H](O[C@@H]3OC(C)(C)[C@@H](OC(=O)C(C)C)[C@H](O)[C@@H]3O)/C(C)=C/C(C)=C/C[C@@H]([C@@H](C)O)OC2=O)O[C@@H]1C [FIDAXOMICIN]
- survival at 30 mg/kg [18]: 40%
- Activity [25]: inactive

SMILES: C/C=C1\NC(=O)[C@H]([C@@H](C)O)NC(=O)c2csc(n2)-c2ccc(-c3nc(-c4nc(C(=O)NC5(C(=O)NCCCN6C(=O)CNC6=O)CC5)cs4)cs3)nc2-c2csc(n2)[C@H]([C@@H](C)O)NC(=O)c2csc(n2)[C@H](C(C)C)NC(=O)c2csc1n2
- MIC [1]: 0.125 µg/mL (≈ 0.102 µM)
- MIC [5]: 0.5 µg/mL (≈ 0.408 µM)
- MIC [9]: 0.5 µg/mL (≈ 0.408 µM)
- MIC [10]: 0.25 µg/mL (≈ 0.204 µM)
- MIC [11]: 0.5 µg/mL (≈ 0.408 µM)
- MIC [13]: 0.5 µg/mL (≈ 0.408 µM)
- MIC [14]: 0.5 µg/mL (≈ 0.408 µM)
- MIC [2]: 1 µg/mL (≈ 0.815 µM)
- MIC [15]: 0.5 µg/mL (≈ 0.408 µM)
- MIC [16]: 0.5 µg/mL (≈ 0.408 µM)
- MIC [17]: 0.5 µg/mL (≈ 0.408 µM)
- MIC [19]: 0.25 µg/mL (≈ 0.204 µM)
- MIC [20]: 0.25 µg/mL (≈ 0.204 µM)
- MIC [23]: 0.5 µg/mL (≈ 0.408 µM)
- MIC [24]: 0.5 µg/mL (≈ 0.408 µM)

SMILES: C/C=C1\NC(=O)[C@H]([C@@H](C)O)NC(=O)c2csc(n2)-c2ccc(-c3nc(-c4nc(C(=O)NC5(C(=O)NCCN6CCOCC6)CC5)cs4)cs3)nc2-c2csc(n2)[C@H]([C@@H](C)O)NC(=O)c2csc(n2)[C@H](C(C)C)NC(=O)c2csc1n2
- MIC [1]: 2 µg/mL (≈ 1.67 µM)
- MIC [2]: 1 µg/mL (≈ 0.834 µM)

SMILES: C/C=C(\NC(=O)c1csc(-c2csc(-c3ccc4c(n3)-c3csc(n3)[C@H]([C@@H](C)O)NC(=O)c3csc(n3)[C@H](C(C)C)NC(=O)c3csc(n3)/C(=C/C)NC(=O)[C@H]([C@@H](C)O)NC(=O)c3csc-4n3)n2)n1)C(=O)NCCn1cc([N+](=O)[O-])nc1C
- MIC [1]: 0.25 µg/mL (≈ 0.202 µM)
- MIC [2]: 1 µg/mL (≈ 0.807 µM)

SMILES: C/C=C1\NC(=O)[C@H]([C@@H](C)O)NC(=O)c2csc(n2)-c2ccc(-c3nc(-c4nc(C(=O)NC5(C(=O)NCCCN6CCN(C(C)C)CC6)CC5)cs4)cs3)nc2-c2csc(n2)[C@H]([C@@H](C)O)NC(=O)c2csc(n2)[C@H](C(C)C)NC(=O)c2csc1n2
- solubility kinetic at 2 h [26]: 120 µg/mL (≈ 95.6 µM)
- MIC [1]: 1 µg/mL (≈ 0.797 µM)
- MIC [2]: 1 µg/mL (≈ 0.797 µM)

SMILES: C/C(=C\C(=O)OCCCCCCCCC(=O)O)C[C@@H]1OC[C@H](C[C@@H]2O[C@H]2[C@@H](C)[C@H](C)O)[C@@H](O)[C@H]1O [MUPIROCIN]
- MIC50 [27]: > 8 µg/mL

Reference: ChEMBL document CHEMBL5370604, “Identification of Micrococcin P2-Derivatives as Antibiotic Candidates against Two Gram-Positive Pathogens” (J Med Chem, 2023)
